Values belong to the molecule of their own block, whether it stands above or below them.
Legend:
[1] = target: T1, BACE1 (Homo sapiens (Human), UniProt P56817); test: BACE1 cell assay; type: cell-based
Target sequence in this assay (P56817 46-501, species assumed): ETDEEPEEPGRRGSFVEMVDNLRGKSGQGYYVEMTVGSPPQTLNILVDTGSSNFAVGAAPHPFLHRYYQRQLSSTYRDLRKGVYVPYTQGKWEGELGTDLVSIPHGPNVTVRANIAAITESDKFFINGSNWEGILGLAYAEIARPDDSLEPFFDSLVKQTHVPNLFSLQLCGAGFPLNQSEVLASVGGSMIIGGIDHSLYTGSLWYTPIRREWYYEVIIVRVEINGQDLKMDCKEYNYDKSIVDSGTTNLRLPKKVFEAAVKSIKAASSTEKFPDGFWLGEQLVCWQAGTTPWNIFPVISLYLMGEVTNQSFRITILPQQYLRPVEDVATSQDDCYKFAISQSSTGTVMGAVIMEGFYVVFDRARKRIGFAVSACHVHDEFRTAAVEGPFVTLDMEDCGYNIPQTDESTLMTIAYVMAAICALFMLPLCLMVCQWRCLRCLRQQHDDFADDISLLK

[2] = target: BACE2 (Homo sapiens (Human), UniProt Q9Y5Z0); test: In vitro enzymatic BACE2 FRET assay; type: biochemical; conditions: read-out: IC50 IP (μM) BACE2 Enzyme
From the text: (§1) In Vitro Enzymatic BACE1 and BACE2 FRET (Fluorescence Resonance Energy Transfer) Assays (Enzyme Assay Data in Table 1)

[3] = target: T1, BACE1; test: In vitro enzymatic BACE1 FRET assay; type: biochemical; conditions: read-out: IC50 IP (μM) BACE1 Enzyme
Target sequence in this assay (P56817 46-501): as the sequence (P56817 46-501, species assumed) above
From the text: as §1

[4] = target: Cathepsin D (CatD) (Homo sapiens (Human), UniProt P07339); test: CatD assay; type: biochemical; conditions: read-out: IC50 IP (μM) CatD
Cathepsin D (CatD), sequence (P07339 65-412, species assumed): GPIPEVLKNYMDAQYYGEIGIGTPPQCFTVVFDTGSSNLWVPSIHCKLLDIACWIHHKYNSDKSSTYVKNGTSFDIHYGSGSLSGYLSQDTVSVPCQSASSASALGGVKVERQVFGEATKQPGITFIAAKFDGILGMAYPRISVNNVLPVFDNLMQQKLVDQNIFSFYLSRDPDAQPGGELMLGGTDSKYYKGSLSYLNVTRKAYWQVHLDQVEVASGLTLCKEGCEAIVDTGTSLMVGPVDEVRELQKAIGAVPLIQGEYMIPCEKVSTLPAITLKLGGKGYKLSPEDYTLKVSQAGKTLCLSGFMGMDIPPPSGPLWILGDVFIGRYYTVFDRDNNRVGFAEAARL

[5] = read-out: IC50 IP (μM) BACE1 Cell

BACE2, sequence (Q9Y5Z0 63-518): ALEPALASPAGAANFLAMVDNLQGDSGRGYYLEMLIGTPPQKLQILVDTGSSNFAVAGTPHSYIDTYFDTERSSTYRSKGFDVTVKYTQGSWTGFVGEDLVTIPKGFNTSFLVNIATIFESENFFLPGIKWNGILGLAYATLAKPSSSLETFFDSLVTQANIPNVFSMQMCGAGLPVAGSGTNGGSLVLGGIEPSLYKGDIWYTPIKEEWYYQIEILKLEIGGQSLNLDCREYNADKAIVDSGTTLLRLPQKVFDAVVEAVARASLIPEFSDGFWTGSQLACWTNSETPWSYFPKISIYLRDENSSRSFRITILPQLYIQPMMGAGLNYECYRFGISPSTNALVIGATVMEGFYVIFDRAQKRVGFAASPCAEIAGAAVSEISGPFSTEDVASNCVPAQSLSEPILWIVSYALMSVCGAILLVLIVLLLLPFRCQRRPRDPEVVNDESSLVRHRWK

SMILES: C[C@]1(c2cc(/C=C(\F)c3ccc(C#N)cn3)ccc2F)N=C(N)S[C@@]2(C(=O)N3CCC4(CCO4)C3)C[C@H]21 (stereo partly drawn) [Example 327, 6-((Z)-2-(3-((1S,5S,6S)-3-amino-5-methyl-1-(1-oxa-6-azaspiro[3.4]octane-6-carbonyl)-2-thia-4-azabicyclo[4.1.0]hept-3-en-5-yl)-4-fluorophenyl)-1-fluorovinyl)nicotinonitrile]
IC50 [1, 5]: 0.0003 µM | IC50 [2]: 0.028 µM | IC50 [3]: 0.0008 µM | IC50 [4]: 143 µM

SMILES: CN(C)C(=O)[C@]12C[C@H]1[C@@](C)(c1cc(/C(F)=C/c3ccc(C#N)cc3)ccc1F)N=C(N)S2 [Example 186, (1S,5S,6S)-3-amino-5-(5-((Z)-2-(4-cyanophenyl)-1-fluorovinyl)-2-fluorophenyl)-N,N,5-trimethyl-2-thia-4-azabicyclo[4.1.0]hept-3-ene-1-carboxamide]
IC50 [1, 5]: 0.575 µM | IC50 [2]: 0.302 µM | IC50 [3]: 0.128 µM | IC50 [4]: 48.7 µM

SMILES: C#CCOc1cnc(/C(F)=C/c2cnc(F)c([C@@]3(C)N=C(N)S[C@@]4(C(=O)N5CC[C@@H](F)C5)C[C@H]43)c2)cn1 [Example 295, ((1S,5S,6S)-3-amino-5-(2-fluoro-5-((Z)-2-fluoro-2-(5-(prop-2-yn-1-yloxy)pyrazin-2-yl)vinyl)pyridin-3-yl)-5-methyl-2-thia-4-azabicyclo[4.1.0]hept-3-en-1-yl)((R)-3-fluoropyrrolidin-1-yl)methanone]
IC50 [1, 5]: 0.0004 µM | IC50 [2]: 0.078 µM | IC50 [3]: 0.0008 µM | IC50 [4]: 58.6 µM

SMILES: C[C@]1(c2cc(/C=C(\F)c3ccc(C#N)cn3)cnc2F)N=C(N)S[C@@]2(C(=O)N3CC[C@H](F)C3)C[C@H]21 [Example 182, 6-((Z)-2-(5-((1S,5S,6S)-3-amino-1-((S)-3-fluoropyrrolidine-1-carbonyl)-5-methyl-2-thia-4-azabicyclo[4.1.0]hept-3-en-5-yl)-6-fluoropyridin-3-yl)-1-fluorovinyl)nicotinonitrile]
IC50 [1, 5]: 0.007 µM | IC50 [2]: 0.045 µM | IC50 [3]: 0.0024 µM | IC50 [4]: 776 µM

SMILES: C#C[C@H](C)Oc1cnc(/C(F)=C/c2ccc(F)c([C@@]3(C)N=C(N)S[C@@]4(S(C)(=O)=O)C[C@H]43)c2)cn1 [Example 232, (1R,5S,6S)-5-(5-((Z)-2-(5-((S)-but-3-yn-2-yloxy)pyrazin-2-yl)-2-fluorovinyl)-2-fluorophenyl)-5-methyl-1-(methylsulfonyl)-2-thia-4-azabicyclo[4.1.0]hept-3-en-3-amine]
IC50 [1, 5]: 0.0395 µM | IC50 [2]: 0.108 µM | IC50 [3]: 0.001 µM | IC50 [4]: 88.5 µM

SMILES: CC#CCOc1cnc(/C(F)=C/c2cnc(F)c([C@@]3(C)N=C(N)S[C@@]4(C(=O)N(C)C)C[C@H]43)c2)cn1 [Example 289, (1S,5S,6S)-3-amino-5-(5-((Z)-2-(5-(but-2-yn-1-yloxy)pyrazin-2-yl)-2-fluorovinyl)-2-fluoropyridin-3-yl)-N,N,5-trimethyl-2-thia-4-azabicyclo[4.1.0]hept-3-ene-1-carboxamide]
IC50 [1, 5]: 0.002 µM | IC50 [2]: 0.022 µM | IC50 [3]: 0.0008 µM | IC50 [4]: 227 µM

SMILES: CN(C)C(=O)[C@]12C[C@H]1[C@@](C)(c1cc(/C=C(\F)c3cnc(C#N)nc3)ccc1F)N=C(N)S2 [Example 173, (1S,5S,6S)-3-amino-5-(5-((Z)-2-(2-cyanopyrimidin-5-yl)-2-fluorovinyl)-2-fluorophenyl)-N,N,5-trimethyl-2-thia-4-azabicyclo[4.1.0]hept-3-ene-1-carboxamide]
IC50 [1, 5]: 0.924 µM | IC50 [2]: 0.3 µM | IC50 [3]: 0.15 µM | IC50 [4]: 225 µM

SMILES: Cc1nnc(COc2cnc(/C(F)=C/c3ccc(F)c([C@@]4(C)N=C(N)S[C@@]5(C(=O)N(C)C)C[C@H]54)c3)cn2)o1 [Example 216, (1S,5S,6S)-3-amino-5-(2-fluoro-5-((Z)-2-fluoro-2-(5-((5-methyl-1,3,4-oxadiazol-2-yl)methoxy)pyrazin-2-yl)vinyl)phenyl)-N,N,5-trimethyl-2-thia-4-azabicyclo[4.1.0]hept-3-ene-1-carboxamide]
IC50 [1, 5]: 0.005 µM | IC50 [2]: 0.072 µM | IC50 [3]: 0.007 µM | IC50 [4]: 391 µM

SMILES: C#Cc1ccc(/C(F)=C/c2ccc(F)c([C@@]3(C)N=C(N)S[C@@]4(C(=O)N5CCOCC5)C[C@H]43)c2)nc1 [Example 348, ((1S,5S,6S)-3-amino-5-(5-((Z)-2-(5-ethynylpyridin-2-yl)-2-fluorovinyl)-2-fluorophenyl)-5-methyl-2-thia-4-azabicyclo[4.1.0]hept-3-en-1-yl)(morpholino)methanone]
IC50 [1, 5]: 0.008 µM | IC50 [2]: 0.097 µM | IC50 [3]: 0.007 µM | IC50 [4]: 162 µM

SMILES: C[C@H]1[C@H](O)CCN1C(=O)[C@]12C[C@H]1[C@@](C)(c1cc(/C=C(\F)c3ccc(C#N)cn3)ccc1F)N=C(N)S2 [Example 336, 6-((Z)-2-(3-((1S,5S,6S)-3-amino-1-((2S,3R)-3-hydroxy-2-methylpyrrolidine-1-carbonyl)-5-methyl-2-thia-4-azabicyclo[4.1.0]hept-3-en-5-yl)-4-fluorophenyl)-1-fluorovinyl)nicotinonitrile]
IC50 [1, 5]: 0.0005 µM | IC50 [2]: 0.055 µM | IC50 [3]: 0.0013 µM | IC50 [4]: 151 µM

SMILES: C[C@]1(c2cc(/C=C(\F)c3ccc(Cl)cn3)ccc2F)N=C(N)S[C@@]2(C(N)=O)C[C@H]21 [Example 242, (1S,5S,6S)-3-amino-5-(5-((Z)-2-(5-chloropyridin-2-yl)-2-fluorovinyl)-2-fluorophenyl)-5-methyl-2-thia-4-azabicyclo[4.1.0]hept-3-ene-1-carboxamide]
IC50 [1]: 0.0181 µM | IC50 [2]: 0.034 µM | IC50 [3]: 0.0164 µM | IC50 [4]: 205 µM

IC50 [1, 5]: 0.104 µM | IC50 [2]: 0.365 µM | IC50 [3]: 0.004 µM | IC50 [4]: 349 µM
SMILES: CNC(=O)[C@]12C[C@H]1[C@@](C)(c1cc(/C=C(\F)c3cnc(C#CCO)cn3)ccc1F)N=C(N)S2 [Example 362, (1S,5S,6S)-3-amino-5-(2-fluoro-5-((Z)-2-fluoro-2-(5-(3-hydroxyprop-1-yn-1-yl)pyrazin-2-yl)vinyl)phenyl)-N,5-dimethyl-2-thia-4-azabicyclo[4.1.0]hept-3-ene-1-carboxamide]

SMILES: CCCC#Cc1ccc(/C(F)=C/c2ccc(F)c([C@@]3(C)N=C(N)S[C@@]4(C(=O)NC)C[C@H]43)c2)nc1 [Example 361, (1S,5S,6S)-3-amino-5-(2-fluoro-5-((Z)-2-fluoro-2-(5-(pent-1-yn-1-yl)pyridin-2-yl)vinyl)phenyl)-N,5-dimethyl-2-thia-4-azabicyclo[4.1.0]hept-3-ene-1-carboxamide]
IC50 [1, 5]: 1.41 µM | IC50 [2]: 0.49 µM | IC50 [3]: 0.058 µM | IC50 [4]: 34 µM

SMILES: CNC(=O)[C@]12C[C@H]1[C@@](C)(c1cc(/C=C(\F)c3cnc(OCc4cnco4)cn3)ccc1F)N=C(N)S2 [Example 226, (1S,5S,6S)-3-amino-5-(2-fluoro-5-((Z)-2-fluoro-2-(5-(oxazol-5-ylmethoxy)pyrazin-2-yl)vinyl)phenyl)-N,5-dimethyl-2-thia-4-azabicyclo[4.1.0]hept-3-ene-1-carboxamide]
IC50 [1]: 0.608 µM | IC50 [2]: 0.285 µM | IC50 [3]: 0.126 µM | IC50 [4]: 18.5 µM

SMILES: C[C@]1(c2cc(/C=C(\F)c3ccc(C#N)cn3)ccc2F)N=C(N)S[C@@]2(C(=O)N3CCOCC34CCC4)C[C@H]21 [Example 331, 6-((Z)-2-(3-((1S,5S,6S)-3-amino-5-methyl-1-(8-oxa-5-azaspiro[3.5]nonane-5-carbonyl)-2-thia-4-azabicyclo[4.1.0]hept-3-en-5-yl)-4-fluorophenyl)-1-fluorovinyl)nicotinonitrile]
IC50 [1, 5]: 0.0032 µM | IC50 [2]: 0.061 µM | IC50 [3]: 0.0013 µM | IC50 [4]: 8.9 µM

SMILES: CNC(=O)[C@]12C[C@H]1[C@@](C)(c1cc(/C=C(\F)c3cnc(Cl)cn3)ccc1F)N=C(N)S2 [Example 352, (1S,5S,6S)-3-amino-5-(5-((Z)-2-(5-chloropyrazin-2-yl)-2-fluorovinyl)-2-fluorophenyl)-N,5-dimethyl-2-thia-4-azabicyclo[4.1.0]hept-3-ene-1-carboxamide]
IC50 [1, 5]: 0.006 µM | IC50 [2]: 0.029 µM | IC50 [3]: 0.007 µM | IC50 [4]: 101 µM

SMILES: CN(C)C(=O)[C@]12C[C@H]1[C@@](C)(c1cc(/C=C(\F)c3cnc(OCc4ncco4)cn3)ccc1F)N=C(N)S2 [Example 154, (1S,5S,6S)-3-amino-5-(2-fluoro-5-((Z)-2-fluoro-2-(5-(oxazol-2-ylmethoxy)pyrazin-2-yl)vinyl)phenyl)-N,N,5-trimethyl-2-thia-4-azabicyclo[4.1.0]hept-3-ene-1-carboxamide]
IC50 [1, 5]: 0.0049 µM | IC50 [2]: 0.0455 µM | IC50 [3]: 0.00798 µM | IC50 [4]: 107 µM

SMILES: CN(C)C(=O)[C@]12C[C@H]1[C@@](C)(c1cc(/C=C(\F)c3cnc(OCC#N)cn3)ccc1F)N=C(N)S2 [Example 158, (1S,5S,6S)-3-amino-5-(5-((Z)-2-(5-(cyanomethoxy)pyrazin-2-yl)-2-fluorovinyl)-2-fluorophenyl)-N,N,5-trimethyl-2-thia-4-azabicyclo[4.1.0]hept-3-ene-1-carboxamide]
IC50 [1, 5]: 0.119 µM | IC50 [2]: 0.0927 µM | IC50 [3]: 0.116 µM | IC50 [4]: 400 µM

SMILES: CC1(C)CC2CC(C)(CN2C(=O)[C@]23C[C@H]2[C@@](C)(c2cc(/C=C(\F)c4ccc(C#N)cn4)ccc2F)N=C(N)S3)C1 (stereo partly drawn) [Example 136, 6-((Z)-2-(3-((1S,5S,6S)-3-amino-5-methyl-1-(1,3,3-trimethyl-6-azabicyclo[3.2.1]octane-6-carbonyl)-2-thia-4-azabicyclo[4.1.0]hept-3-en-5-yl)-4-fluorophenyl)-1-fluorovinyl)nicotinonitrile]
IC50 [1, 5]: 0.0154 µM | IC50 [2]: 0.0363 µM | IC50 [3]: 0.00582 µM | IC50 [4]: 4.18 µM

SMILES: CN(C)C(=O)[C@]12C[C@H]1[C@@](C)(c1cc(/C=C(\F)c3ncc4c(n3)OCCO4)ccc1F)N=C(N)S2 [Example 250, (1S,5S,6S)-3-amino-5-(5-((Z)-2-(6,7-dihydro-[1,4]dioxino[2,3-d]pyrimidin-2-yl)-2-fluorovinyl)-2-fluorophenyl)-N,N,5-trimethyl-2-thia-4-azabicyclo[4.1.0]hept-3-ene-1-carboxamide]
IC50 [1, 5]: 0.017 µM | IC50 [2]: 0.076 µM | IC50 [3]: 0.029 µM | IC50 [4]: 368 µM
